Reference: patent US4159328A, “Tetrahydro-1,3,5-thiadiazin-4-one derivative” (Nihon Nohyaku Co., Ltd., priority 1977, dated 1979)
Like-named read-outs stand apart in the source and are kept apart here.

Experiments:
Type in all cases: in vivo
[1] = system: larvae of house mosquito (Culex pipiens pallens Coquillett); assay: Test Example 6: insecticidal activity to larvae of house mosquito; details: 120 h
Description: Insecticidal activity to larvae of house mosquito (Culex pipiens pallens Coquillett).
Test method: In a 200-ml beaker, was placed together with a feed 100 ml of a test composition diluted with deionized water to 10 ppm concentration. The test composition was infested with 20 first-instar larvae of house mosquito and the beaker was covered with a sheet of Japanese paper. The beaker was kept in a constant temperature cabinet at 25° C. Five days after the treatment, the dead-and-survival was inspected to calculate the mortality.

[2] = system: larvae of 28-spotted lady beetle (Epilachna vigintioctopunctana Fabricius); assay: Test Example 8: insecticidal activity against larvae of 28-spotted lady beetle; details: 120 h
Description: Insecticidal activity against larvae of 28-spotted lady beetle (Epilachna vigintioctopunctana Fabricius).
Testing method: Leaflets of tomato grown in a greenhouse were dipped in a test composition of 100 ppm concentration for 30 seconds and after that the leaflets were dried by air. In a Petri dish covered on the bottom with a piece of filter paper, were introduced 1 ml of water and three treated tomato leaflets. After having been infested with seven second-instar larvae of 28-spotted lady beetle, the Petri dish was left standing in a constant temperature cabinet at 25° C. Five days after the treatment, the dead-and-survival was inspected to calculate the mortality (2-replication test).

[3] = system: larvae of brown planthopper (Nilaparvata lugens Stahl); assay: Test Example 1: insecticidal activity against larvae of brown planthopper; details: 120 h, third-instar larvae, 25° C., 5 days after treatment
Description: Insecticidal activity against larvae of brown planthopper (Nilaparvata lugens Stahl).
(§1) Testing method: Five rice seedlings of the 1.5 leaf age were dipped in a test composition of 400 ppm concentration for 30 seconds. After air-drying, the seedlings were placed in a glass tube containing 1 ml of water and infested with five third-instar larvae of brown planthopper. The glass tube was left standing in a constant temperature cabinet at 25° C. and 5 or 7 days after the treatment, dead-and-survival was observed. Mortality was calculated from the results of 3-replication test.

[4] = system: larvae of white-backed planthopper (Sogatella furcifera Horvath); assay: Test Example 2: insecticidal activity against larvae of white-backed planthopper; details: 168 h, 400 ppm, first-instar larvae, 25° C., seven days after treatment, read-out: Mortality
Description: Insecticidal activity against larvae of white-backed planthopper (Sogatella furcifera Horvath).
as §1, with “first-instar” for “third-instar”, “white-backed” for “brown”, “seven” for “5 or 7”

[5] = system: two-spotted spider mite (Tetranychus urticae Koch); assay: Test Example 3: activity to two-spotted spider mite; details: 120 h, 1,000 ppm, 5 days after treatment
Text: Activity to two-spotted spider mite (Tetranychus urticae Koch).
Testing method: Two-spotted spider mites were set free on the pot-planted soybean in a greenhouse. On the next day, a test composition of 1,000 ppm concentration was sprayed over the soybean by means of a spray gun. Two days or five days after the treatment, dead-and-survival was inspected to calculate the mortality.

[6] = system: larvae of green rice leafhopper (Nephotettix cincticeps Uhler); assay: Test Example 5: activity against larvae of green rice leafhopper; details: 168 h, 400 ppm, second-instar larvae, 25° C., seven days after treatment, read-out: Mortality
Description: Activity against larvae of green rice leafhopper (Nephotettix cincticeps Uhler).
Testing method: Five rice seedlings of the 1.5 leaf age were dipped in a test composition of 400 ppm concentration for 30 seconds. After air-drying, the seedlings were placed in a glass tube containing 1 ml of water and infested with five second-instar larvae of green rice leafhopper. The glass tube was left standing in a constant temperature cabinet at 25° C. Seven days after the treatment, dead-and-survivalwas inspected to calculate the mortality (3-replication test).

[7] = 100 ppm, second-instar larvae, 25° C., five days, read-out: Mortality

SMILES	mortality at 10 ppm [1] [%]	mortality at 100 ppm [2] [%]	mortality at 400 ppm [3] [%]	mortality at 100 ppm [2, 7] [%]	mortality at 400 ppm [4] [%]	mortality at 1000 ppm [5] [%]	mortality at 400 ppm [6] [%]
CCCCN=C1SCN(c2ccccc2)C(=O)N1CCCC [Compound 146]	100	100	–	–	–	–	–
CCCCN1C(=O)N(c2ccccc2)CSC1=NC(C)C [Compound 147]	100	100	100	–	–	–	–
CCC(C)N=C1SCN(c2ccccc2)C(=O)N1c1ccccc1 (stereo not shown) [Compound 163, 2-s-Butylimino-3,5-diphenyl-tetrahydro-1,3,5-thiadiazin-4-one]	–	–	–	60	–	–	–
CC(C)N1C(=O)N(c2ccc(Cl)cc2)CSC1=NC(C)(C)C [Compound 196, 2-t-Butylimino-3-isopropyl-5-(p-chlorophenyl)-tetrahydro-1,3,5-thiadiazin-4-one]	–	–	100	–	90	100	–
CCC(C)N=C1SCN(c2ccc(Cl)cc2)C(=O)N1C(C)CC (stereo not shown) [Compound 197]	100	–	100	–	90	80	–
CCC(C)N1C(=O)N(c2ccc(Cl)cc2)CSC1=NC(C)(C)C (stereo not shown) [Compound 198]	100	100	100	–	100	100	100
CC(C)N=C1SCN(c2cccc(Cl)c2)C(=O)N1C(C)C [Compound 220]	80	100	100	–	100	–	100
CC(C)N1C(=O)N(c2cccc(Cl)c2)CSC1=NC(C)(C)C [Compound 221, 2-t-Butylimino-3-isopropyl-5-(m-chlorophenyl)-tetrahydro-1,3,5-thiadiazin-4-one]	100	90	100	–	100	100	100
CCC(C)N1C(=O)N(c2cccc(Cl)c2)CSC1=NC(C)(C)C (stereo not shown) [Compound 225, 2-t-Butylimino-3-s-butyl-5-(m-chlorophenyl)-tetrahydro-1,3,5-thiadiazin-4-one]	100	–	100	–	100	100	90
CC(C)N=C1SCN(c2ccccc2Cl)C(=O)N1C(C)C [Compound 244, 2-Isopropylimino-3-isopropyl-5-(o-chlorophenyl)-tetrahydro-1,3,5-thiadiazin-4-one]	100	–	100	–	100	70	100
CC(C)N1C(=O)N(c2ccccc2Cl)CSC1=NC(C)(C)C [Compound 245, 2-t-butylimino-3-isopropyl-5-(o-chlorophenyl)-tetrahydro-1,3,5-thiadiazin-4-one]	100	90	100	–	100	100	100
CCC(C)N=C1SCN(c2ccccc2Cl)C(=O)N1C(C)CC (stereo not shown) [Compound 248]	90	–	100	–	–	100	100
CC(C)N1C(=O)N(c2ccc(F)cc2)CSC1=NC(C)(C)C [Compound 282, 2-t-butylimino-3-isopropyl 5-(p-fluorophenyl)-tetrahydro-1,3,5-thiadiazin-4-one]	90	–	100	–	100	80	100
CCC(C)N=C1SCN(c2ccc(F)cc2)C(=O)N1C(C)CC (stereo not shown) [Compound 283]	70	90	100	–	100	70	90
CCC(C)N1C(=O)N(c2ccc(F)cc2)CSC1=NC(C)(C)C (stereo not shown) [Compound 284]	100	100	100	–	100	100	100
CC(C)N=C1SCN(c2ccc(F)cc2)C(=O)N1C(C)C [Compound 285]	100	80	100	–	100	100	100

SMILES	mortality at 10 ppm [1] [%]	mortality at 100 ppm [2] [%]	mortality at 400 ppm [3] [%]	mortality at 100 ppm [2, 7] [%]	mortality at 400 ppm [4] [%]	mortality at 1000 ppm [5] [%]	mortality at 400 ppm [6] [%]
CN=C1SCN(c2ccc(Br)cc2)C(=O)N1C [Compound 291]	70	100	100	–	100	100	100
CCC(C)N1C(=O)N(c2ccccc2C)CSC1=NC(C)(C)C (stereo not shown) [Compound 303]	–	100	100	–	100	80	100
CCCN1C(=O)N(c2ccc(C)cc2)CSC1=NC(C)C [Compound 314]	100	100	100	–	–	100	–
Cc1cccc(N2CSC(=NC(C)C)N(C(C)C)C2=O)c1 [Compound 325]	100	100	100	–	100	–	100
COc1ccc(N2CSC(=NC(C)C)N(C(C)C)C2=O)cc1 [Compound 352]	100	100	100	–	100	–	100
CC(C)N1C(=O)N(c2ccc([N+](=O)[O-])cc2)CSC1=NC(C)(C)C [Compound 364]	–	80	100	–	–	60	–
CCc1cccc(CC)c1N1CSC(=NC(C)C)N(C(C)C)C1=O [Compound 395, 2-Isopropylimino-3-isopropyl-5-(2,6-diethylphenyl)-tetrahydro-1,3,5-thiadiazin-4-one]	100	–	100	–	90	80	100
CC(C)N=C1SCN(c2ccc(Cl)cc2Cl)C(=O)N1C(C)C [Compound 398]	–	80	100	–	–	80	–
CC(C)N1C(=O)N(c2ccc(Cl)cc2Cl)CSC1=NC(C)(C)C [Compound 399]	–	100	100	–	–	80	–
CCN=C1SCN(c2cc(Cl)cc(Cl)c2)C(=O)N1CC [Compound 404]	–	90	–	–	–	100	–
CCCN1C(=O)N(c2cc(Cl)cc(Cl)c2)CSC1=NC(C)C [Compound 405]	–	90	–	–	–	–	–
CCC(C)N=C1SCN(c2cc(Cl)cc(Cl)c2)C(=O)N1C(C)CC (stereo not shown) [Compound 411]	–	100	60	–	–	100	–
C=CCN1C(=O)N(c2cc(Cl)cc(Cl)c2)CSC1=NC(C)C [Compound 412, 2-Isopropylimino-3-allyl-5-(3,5-dichlorophenyl)-tetrahydro-1,3,5-thiadiazin-4-one]	–	100	100	–	–	100	–
CCN1C(=O)N(c2ccc(Cl)c(Cl)c2)CSC1=NC(C)(C)C [Compound 418]	–	–	60	70	–	70	–
CC(C)N=C1SCN(c2ccc(Cl)c(Cl)c2)C(=O)N1Cc1ccccc1 [Compound 422]	–	90	60	–	–	100	–
